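Five compound concentrations were applied to cells in 96-well plates for 48 hours; endpoints were derived by simple linear interpolation of the resulting dose-response curve. GI50: concentration for 50% inhibition of growth.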 The source made the active and inactive calls. No stated cut-off is given here; in the data, active = GI50 up to about 1.1 µM and inactive = higher.
Legend:
Assay in all cases: NCI-60 cell line screen, 48 h
NCI-H460 = system: NCI-H460
SK-MEL-5 = system: SK-MEL-5
M14 = system: M14
HL-60 = system: HL-60
HCT-15 = system: HCT-15
UACC-62 = system: UACC-62
NCI-H522 = system: NCI-H522
OVCAR-5 = system: OVCAR-5
UACC-257 = system: UACC-257
UO-31 = system: UO-31
KM12 = system: KM12
MOLT-4 = system: MOLT-4
DU-145 = system: DU-145
A498 = system: A498
CAKI-1 = system: CAKI-1
NCI-H226 = system: NCI-H226
NCI/ADR-RES = system: NCI/ADR-RES
K562 = system: K562
HOP-92 = system: HOP-92
SF-295 = system: SF-295

| Compound | GI50 (NCI-H460) | GI50 (SK-MEL-5) | GI50 (M14) | GI50 (HL-60) | GI50 (HCT-15) [µM] | GI50 (UACC-62) | GI50 (NCI-H522) | GI50 (OVCAR-5) | GI50 (UACC-257) | GI50 (UO-31) | GI50 (KM12) | GI50 (MOLT-4) | GI50 (DU-145) | GI50 (A498) | GI50 (CAKI-1) | GI50 (NCI-H226) | GI50 (NCI/ADR-RES) | GI50 (K562) | GI50 (HOP-92) | GI50 (SF-295) |
| --- | --- | --- | --- | --- | --- | --- | --- | --- | --- | --- | --- | --- | --- | --- | --- | --- | --- | --- | --- | --- |
| CCOC(=O)NNC(=O)NCCNC(=O)NNC(=O)OCC | > 100 µM (inactive) | > 100 µM (inactive) | > 100 µM (inactive) | > 100 µM (inactive) | > 100 | > 100 µM (inactive) | > 100 µM (inactive) | 69.3 µM (inactive) | > 100 µM (inactive) | > 100 µM (inactive) | > 100 µM (inactive) | > 100 µM (inactive) | > 100 µM (inactive) | > 100 µM (inactive) | > 100 µM (inactive) | 98.6 µM (inactive) | > 100 µM (inactive) | > 100 µM (inactive) | – | – |
| Cc1cc2c(cc1C)C(=O)C1(C2)Cc2c(C)ccc(C)c2C1=O (stereo unspecified) | > 100 µM (inactive) | > 100 µM (inactive) | > 100 µM (inactive) | > 100 µM (inactive) | > 100 | > 100 µM (inactive) | > 100 µM (inactive) | > 100 µM (inactive) | > 100 µM (inactive) | > 100 µM (inactive) | > 100 µM (inactive) | > 100 µM (inactive) | > 100 µM (inactive) | – | > 100 µM (inactive) | > 100 µM (inactive) | > 100 µM (inactive) | > 100 µM (inactive) | > 100 µM (inactive) | > 100 µM (inactive) |
| CC1CC(NN)=Nc2ccccc2N1 (stereo unspecified) | > 100 µM (inactive) | > 100 µM (inactive) | > 100 µM (inactive) | 60.3 µM (inactive) | > 100 | > 100 µM (inactive) | > 100 µM (inactive) | > 100 µM (inactive) | > 100 µM (inactive) | > 100 µM (inactive) | > 100 µM (inactive) | > 100 µM (inactive) | > 100 µM (inactive) | > 100 µM (inactive) | > 100 µM (inactive) | > 100 µM (inactive) | > 100 µM (inactive) | 49.2 µM (inactive) | – | > 100 µM (inactive) |
| CCc1[nH]c(=O)c2oc3cc4ccccc4cc3c2c1C(=O)O | > 10 µM (inactive) | – | > 10 µM (inactive) | > 10 µM (inactive) | > 10 | – | > 10 µM (inactive) | > 10 µM (inactive) | > 10 µM (inactive) | > 10 µM (inactive) | > 10 µM (inactive) | – | 3.91 µM (inactive) | – | – | > 10 µM (inactive) | > 10 µM (inactive) | – | > 10 µM (inactive) | > 10 µM (inactive) |
| OC(C#CCN1CCCC1)(c1ccccc1)c1ccccc1Cl (stereo unspecified) | 20.2 µM (inactive) | 17.7 µM (inactive) | – | 26.8 µM (inactive) | 68.5 | 27.2 µM (inactive) | 22.6 µM (inactive) | > 100 µM (inactive) | 20.7 µM (inactive) | 24.7 µM (inactive) | 27.5 µM (inactive) | 33.7 µM (inactive) | > 100 µM (inactive) | 17.1 µM (inactive) | 24.8 µM (inactive) | 80.7 µM (inactive) | 23.3 µM (inactive) | 30.8 µM (inactive) | – | 24.6 µM (inactive) |
| c1ccc(/N=C2\c3ccccc3CN2c2ccccc2)cc1 | > 100 µM (inactive) | > 100 µM (inactive) | > 100 µM (inactive) | > 100 µM (inactive) | > 100 | > 100 µM (inactive) | > 100 µM (inactive) | – | > 100 µM (inactive) | > 100 µM (inactive) | > 100 µM (inactive) | > 100 µM (inactive) | > 100 µM (inactive) | – | > 100 µM (inactive) | > 100 µM (inactive) | > 100 µM (inactive) | > 100 µM (inactive) | 46.5 µM (inactive) | > 100 µM (inactive) |

Reference: ChEMBL document CHEMBL1201862, “PubChem BioAssay data set” (2004)
